From US11530237B2, “Compositions and methods for treating CNS disorders” (Sage Therapeutics, Inc., priority 2014, dated 2022) come the findings set out here.

In this test the target is α1β2γ2 GABAA receptors (Homo sapiens (Human), UniProt P14867+P47870). The test can be described thus: Patch clamp electrophysiology (QPatch) of recombinant α1β2γ2 GABAA receptors in LTK cells. Type of test: cell-based. To be noted: 10 μM test article, GABA EC20 = 2 μM, read-out: GABA (α1β2γ2) Qpatch in Ltk, % efficacy at 10 μM. As to the method:
Cellular electrophysiology is used to measure the pharmacological properties of our GABAA receptor modulators in heterologous cell systems. Each compound is tested for its ability to affect GABA mediated currents at a suhmaximal agonist dose (GABA EC20=2 μM). LTK cells are stably transfected with the α1β2γ2 subunits of the GABA receptor and CHO cells are transiently transfected with the α4β3δ subunits via the Lipofecatamine method. Cells were passaged at a confluence of about 50-80% and then seeded onto 35 mm sterile culture dishes containing 2 ml culture complete medium without antibiotics or antimycotics. Confluent clusters of cells are electrically coupled (Pritchett et al., Science, 1988, 242, 1306-1308). Because responses in distant cells are not adequately voltage clamped and because of uncertainties about the extent of coupling (Verdoom et al., Neuron 1990, 4, 919-928), cells were cultivated at a density that enables the recording of single cells (without visible connections to other cells).
Whole cell currents were measured with HEKA EPC-10 amplifiers using PatchMaster software or by using the high throughput QPatch platform (Sophion). Bath solution for all experiments contained (in mM): NaCl 137 mM, KCl 4 mM, CaCl2 1.8 mM, MgCl2 1 mM, HEPES 10 mM, D-Glucose 10 mM, pH (NaOH) 7.4. In some cases 0.005% cremophor was also added. Intracellular (pipette) solution contained: KCl 130 mM, MgCl2 1 mM, Mg-ATP 5 mM, HEPES 10 mM, EGTA 5 mM, pH 7.2. During experiments, cells and solutions were maintained at room temperature (19° C.-30° C.). For manual patch clamp recordings, cell culture dishes were placed on the dish holder of the microscope and continuously perfused (1 ml/min) with bath solution. After formation of a Gigaohm seal between the patch electrodes and the cell (-ipette resistance range: 2.5 MΩ-6.0 MΩ; seal resistance range:>1 GΩ) the cell membrane across the pipette tip was ruptured to assure electrical access to the cell interior (whole-cell patch-configuration). For experiments using the QPatch system, cells were transferred as suspension to the QPatch system in the bath solution and automated whole cell recordings were performed.
Cells were voltage clamped at a holding potential of −80 mV. For the analysis of test articles, GABA receptors were stimulated by 2 μM GABA after sequential pre-incubation of increasing concentrations of the test article. Pre-incubation duration was 30 s and the duration of the GABA stimulus was 2s. Test articles were dissolved in DMSO to form stock solutions (10 mM). Test articles were diluted to 0.01, 0.1, 1, and 10 μM in bath solution. All concentrations of test articles were tested on each cell. The relative percentage potentiation was defined as the peak amplitude in response to GABA EC20 in the presence of the test article divided by the peak amplitude in response to GABA EC20 alone, multiplied by 100. For Table 2. GABAA receptors α1β2γ2 and α4β3δ% efficacy: “A” 10-100, “B”>100-500, “C”>500; D indicates the data is not available or has not been determined.
A general note: In patch-clamp work, channel activity is measured electrically.

As for `Cc1cn(CC(=O)[C@H]2CC[C@H]3[C@@H]4CC[C@@H]5C[C@](C)(O)CC[C@]5(C)[C@H]4CC[C@]23C)cn1` [Compound 172], the Emax at 10 µM lay in the range of 100 to 500%.

`CC(C)Oc1cnn(CC(=O)[C@H]2CC[C@H]3[C@@H]4CC[C@@H]5C[C@](C)(O)CC[C@]5(C)[C@H]4CC[C@]23C)c1` [Compound 173]: the Emax at 10 µM lay within 100 to 500%. Turning to `CO[C@H]1C[C@@]2(C)[C@@H](CC[C@@H]3[C@@H]2CC[C@]2(C)[C@@H](C(=O)Cn4nccn4)CC[C@@H]32)C[C@]1(C)O` [Compound 42], the Emax at 10 µM is 100 to 500%.

As for `COC[C@@]1(O)CC[C@@]2(C)[C@@H](CC[C@@H]3[C@@H]2CC[C@]2(C)[C@@H](C(=O)Cn4ccnc4)CC[C@@H]32)C1` [Compound 141], the Emax at 10 µM is above 500%. As to `Cc1nccn1CC(=O)[C@H]1CC[C@H]2[C@@H]3CC[C@@H]4C[C@](C)(O)CC[C@]4(C)[C@H]3CC[C@]12C` [Compound 174], the Emax at 10 µM lay within 100 to 500%. Take `C[C@@]1(O)CC[C@@]2(C)[C@@H](CC[C@@H]3[C@@H]2CC[C@]2(C)[C@@H](C(=O)Cn4cc(C(F)(F)F)cn4)CC[C@@H]32)C1` [Compound 131]: the Emax at 10 µM was in the range of 100 to 500%.

For the molecule `CN(C)C(=O)c1cnn(CC(=O)[C@H]2CC[C@H]3[C@@H]4CC[C@@H]5C[C@](C)(O)CC[C@]5(C)[C@H]4CC[C@]23C)c1` [Compound 169], the Emax at 10 µM was 100 to 500%. The result for `COc1ccc2nn(CC(=O)[C@H]3CC[C@H]4[C@@H]5CC[C@H]6C[C@](C)(O)CC[C@]6(C)[C@H]5CC[C@]34C)nc2c1` [Compound 125] reads 100 to 500%; that for `C[C@@]1(O)CC[C@@]2(C)[C@@H](CC[C@@H]3[C@@H]2CC[C@]2(C)[C@@H](C(=O)Cn4nc5ccc(Cl)c(F)c5n4)CC[C@@H]32)C1` [Compound 112], 100 to 500%.

On to `CO[C@H]1C[C@@]2(C)[C@@H](CC[C@@H]3[C@@H]2CC[C@]2(C)[C@@H](C(=O)Cn4ccnn4)CC[C@@H]32)C[C@@H]1O` [Compound 3], for which the Emax at 10 µM lay within 100 to 500%. Turning to `Cc1cncn1CC(=O)[C@H]1CC[C@H]2[C@@H]3CC[C@H]4C[C@](C)(O)CC[C@]4(C)[C@H]3CC[C@]12C` [Compound 136], the Emax at 10 µM is 100 to 500%.

For `C[C@@]1(O)CC[C@@]2(C)[C@@H](CC[C@@H]3[C@@H]2CC[C@]2(C)[C@@H](C(=O)Cn4nc5cccc(F)c5n4)CC[C@@H]32)C1` [Compound 128], the Emax at 10 µM was in the range of 100 to 500%. The result for `CNC(=O)c1cnn(CC(=O)[C@H]2CC[C@H]3[C@@H]4CC[C@@H]5C[C@](C)(O)CC[C@]5(C)[C@H]4CC[C@]23C)c1` [Compound 168] reads 100 to 500%; that for `CCOc1cnn(CC(=O)[C@H]2CC[C@H]3[C@@H]4CC[C@H]5C[C@@](O)(COC)CC[C@]5(C)[C@H]4CC[C@]23C)c1` [Compound 159], above 500%; that for `CCOc1cnn(CC(=O)[C@H]2CC[C@H]3[C@@H]4CC[C@@H]5C[C@](C)(O)CC[C@]5(C)[C@H]4CC[C@]23C)c1` [Compound 145], above 500%. Regarding `COC[C@@]1(O)CC[C@@]2(C)[C@@H](CC[C@@H]3[C@@H]2CC[C@]2(C)[C@@H](C(=O)Cn4cnc(C#N)c4)CC[C@@H]32)C1` [Compound 178], the Emax at 10 µM was above 500%.

With `CO[C@H]1C[C@@]2(C)[C@@H](CC[C@@H]3[C@@H]2CC[C@]2(C)[C@@H](C(=O)CN4CCOCC4)CC[C@@H]32)C[C@@H]1O` [Compound 1], the Emax at 10 µM was 100 to 500%. Take `Cc1cnn(CC(=O)[C@H]2CC[C@H]3[C@@H]4CC[C@@H]5C[C@](C)(O)CC[C@]5(C)[C@H]4CC[C@]23C)c1` [Compound 147]: the Emax at 10 µM is above 500%. Take `C[C@@]1(O)CC[C@@]2(C)[C@H](CC[C@@H]3[C@@H]2CC[C@]2(C)[C@@H](C(=O)Cn4cc(C(N)=O)cn4)CC[C@@H]32)C1` [Compound 167]: the Emax at 10 µM lay in the range of 100 to 500%. Regarding `CC(=O)Nc1cnn(CC(=O)[C@H]2CC[C@H]3[C@@H]4CC[C@@H]5C[C@](C)(O)CC[C@]5(C)[C@H]4CC[C@]23C)c1` [Compound 171], the Emax at 10 µM fell in the range of 100 to 500%. The same measure for `COc1cnn(CC(=O)[C@H]2CC[C@H]3[C@@H]4CC[C@@H]5C[C@](C)(O)CC[C@]5(C)[C@H]4CC[C@]23C)c1` [Compound 166]: 100 to 500%. Take `COC[C@@]1(O)CC[C@@]2(C)[C@@H](CC[C@@H]3[C@@H]2CC[C@]2(C)[C@@H](C(=O)Cn4nc5ccc(Cl)cc5n4)CC[C@@H]32)C1` [Compound 165]: the Emax at 10 µM is 100 to 500%. Turning to `C[C@@]1(O)CC[C@@]2(C)[C@@H](CC[C@@H]3[C@@H]2CC[C@]2(C)[C@@H](C(=O)Cn4cc(Cl)cn4)CC[C@@H]32)C1` [Compound 137], the Emax at 10 µM was 100 to 500%. The result for `C[C@@]1(O)CC[C@@]2(C)[C@@H](CC[C@@H]3[C@@H]2CC[C@]2(C)[C@@H](C(=O)Cn4cnc(C#N)c4)CC[C@@H]32)C1` [Compound 154] reads 100 to 500%. `CNC(=O)c1cnn(CC(=O)[C@H]2CC[C@H]3[C@@H]4CC[C@H]5C[C@@](O)(COC)CC[C@]5(C)[C@H]4CC[C@]23C)c1` [Compound 161]: the Emax at 10 µM was 10 to 100%.

`Cc1cn(CC(=O)[C@H]2CC[C@H]3[C@@H]4CC[C@H]5C[C@](C)(O)CC[C@]5(C)[C@H]4CC[C@]23C)cn1` [Compound 135]: the Emax at 10 µM was in the range of 100 to 500%.

As to `COC[C@@]1(O)CC[C@@]2(C)[C@@H](CC[C@@H]3[C@@H]2CC[C@]2(C)[C@@H](C(=O)Cn4cc(OC)cn4)CC[C@@H]32)C1` [Compound 158], the Emax at 10 µM was in the range of 100 to 500%. Consider `Cc1cnn(CC(=O)[C@H]2CC[C@H]3[C@@H]4CC[C@H]5C[C@](C)(O)CC[C@]5(C)[C@H]4CC[C@]23C)c1` [Compound 130], for which the Emax at 10 µM lay within 100 to 500%. On to `COc1ccc2c(c1)nnn2CC(=O)[C@H]1CC[C@H]2[C@@H]3CC[C@H]4C[C@](C)(O)CC[C@]4(C)[C@H]3CC[C@]12C` [Compound 127], for which the Emax at 10 µM fell in the range of 100 to 500%. For `COc1cnn(CC(=O)[C@H]2CC[C@H]3[C@@H]4CC[C@H]5C[C@](C)(O)CC[C@]5(C)[C@H]4CC[C@]23C)c1` [Compound 148], the Emax at 10 µM lay within 100 to 500%.

Turning to `C[C@@]1(O)CC[C@@]2(C)[C@@H](CC[C@H]3[C@@H]4CC[C@H](C(=O)Cn5cc(C#N)cn5)[C@@]4(C)CC(=O)[C@@H]32)C1` [Compound 196], the Emax at 10 µM was in the range of 100 to 500%. Turning to `COc1ccc2nnn(CC(=O)[C@H]3CC[C@H]4[C@@H]5CC[C@H]6C[C@](C)(O)CC[C@]6(C)[C@H]5CC[C@]34C)c2c1` [Compound 126], the Emax at 10 µM was 100 to 500%. For `C[C@@]1(O)CC[C@@]2(C)[C@@H](CC[C@@H]3[C@@H]2CC[C@]2(C)[C@@H](C(=O)Cn4ccnc4C#N)CC[C@@H]32)C1` [Compound 129], the Emax at 10 µM lay within 100 to 500%. As for `COC[C@@]1(O)CC[C@@]2(C)[C@@H](CC[C@@H]3[C@@H]2CC[C@]2(C)[C@@H](C(=O)Cn4cc(C(F)(F)F)cn4)CC[C@@H]32)C1` [Compound 140], the Emax at 10 µM is 100 to 500%.
